Measured values taken from ChEMBL document CHEMBL3627700, “Discovery of novel N-aryl piperazine CXCR4 antagonists” (Bioorg Med Chem Lett, 2015).

Key:
[1] = test system: Human immunodeficiency virus 1; assay: Antiviral activity against HIV1 3B assessed as inhibition of viral attachment to human MAGI cells; format: functional, organism-based; settings: Human immunodeficiency virus 1, 3B
[2] = Cytotoxicity against human Chem1 cells; format: cell-based; settings: read-out: TC50 (the source's name)
[3] = Cytotoxicity against human MAGI cells; format: cell-based; settings: read-out: TC50 (the source's name)
[4] = target: T1, C-X-C chemokine receptor type 4 (Homo sapiens, UniProt P61073); assay: Antagonist activity at CXCR4 in human Chem-1 cells assessed as inhibition of CXCL12-induced calcium flux; format: functional, cell-based
[5] = target: T1, C-X-C chemokine receptor type 4
Description: Displacement of [125I]-SDF-1 from CXCR4 (unknown origin)

[6] = target: T2, hERG (KCNH2) (Homo sapiens, UniProt Q12809); assay: Displacement of [3H]-dofetilide from human ERG in HEK293 cells at 1 uM; format: cell-based; settings: HEK293 cells that express hERG, probe [3H]-dofetilide
[7] = target: CYP2C19 (Homo sapiens, UniProt P33261); assay: Inhibition of human CYP2C19 at 1 uM; format: ADME
[8] = test system: Human immunodeficiency virus 1; assay: Antiviral activity against HIV1 3B infected in PBMC; format: functional, organism-based; settings: Human immunodeficiency virus 1, 3B
[9] = target: T2, hERG (KCNH2); assay: Displacement of [3H]-dofetilide from human ERG in HEK293 cells at 10 uM; format: cell-based; settings: HEK293 cells that express hERG, probe [3H]-dofetilide
[10] = Selectivity ratio of IC50 for CXCR4 in human Chem-1 cells to IC50 for HIV1 3B assessed as inhibition of viral attachment to human MAGI cells; format: cell-based
[11] = target: CYP3A4 (Homo sapiens, UniProt P08684); assay: Inhibition of human CYP3A4 at 1 uM
[12] = target: CYP2D6 (Homo sapiens, UniProt P10635); assay: Inhibition of human CYP2D6 at 1 uM
Sequence of CYP2D6 (P10635 whole entry): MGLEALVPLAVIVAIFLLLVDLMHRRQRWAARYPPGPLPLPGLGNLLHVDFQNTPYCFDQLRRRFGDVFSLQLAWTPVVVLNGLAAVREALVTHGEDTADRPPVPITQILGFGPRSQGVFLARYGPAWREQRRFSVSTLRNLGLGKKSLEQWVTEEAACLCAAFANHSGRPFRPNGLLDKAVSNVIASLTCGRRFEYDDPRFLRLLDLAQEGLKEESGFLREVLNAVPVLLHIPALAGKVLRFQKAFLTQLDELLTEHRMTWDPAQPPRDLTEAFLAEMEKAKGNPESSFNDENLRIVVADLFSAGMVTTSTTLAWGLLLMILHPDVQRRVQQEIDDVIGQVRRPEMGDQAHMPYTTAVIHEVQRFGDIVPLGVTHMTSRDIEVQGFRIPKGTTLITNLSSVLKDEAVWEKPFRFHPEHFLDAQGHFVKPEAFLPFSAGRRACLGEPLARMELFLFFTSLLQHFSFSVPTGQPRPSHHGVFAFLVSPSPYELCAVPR

T2 sequence (Q12809 whole entry): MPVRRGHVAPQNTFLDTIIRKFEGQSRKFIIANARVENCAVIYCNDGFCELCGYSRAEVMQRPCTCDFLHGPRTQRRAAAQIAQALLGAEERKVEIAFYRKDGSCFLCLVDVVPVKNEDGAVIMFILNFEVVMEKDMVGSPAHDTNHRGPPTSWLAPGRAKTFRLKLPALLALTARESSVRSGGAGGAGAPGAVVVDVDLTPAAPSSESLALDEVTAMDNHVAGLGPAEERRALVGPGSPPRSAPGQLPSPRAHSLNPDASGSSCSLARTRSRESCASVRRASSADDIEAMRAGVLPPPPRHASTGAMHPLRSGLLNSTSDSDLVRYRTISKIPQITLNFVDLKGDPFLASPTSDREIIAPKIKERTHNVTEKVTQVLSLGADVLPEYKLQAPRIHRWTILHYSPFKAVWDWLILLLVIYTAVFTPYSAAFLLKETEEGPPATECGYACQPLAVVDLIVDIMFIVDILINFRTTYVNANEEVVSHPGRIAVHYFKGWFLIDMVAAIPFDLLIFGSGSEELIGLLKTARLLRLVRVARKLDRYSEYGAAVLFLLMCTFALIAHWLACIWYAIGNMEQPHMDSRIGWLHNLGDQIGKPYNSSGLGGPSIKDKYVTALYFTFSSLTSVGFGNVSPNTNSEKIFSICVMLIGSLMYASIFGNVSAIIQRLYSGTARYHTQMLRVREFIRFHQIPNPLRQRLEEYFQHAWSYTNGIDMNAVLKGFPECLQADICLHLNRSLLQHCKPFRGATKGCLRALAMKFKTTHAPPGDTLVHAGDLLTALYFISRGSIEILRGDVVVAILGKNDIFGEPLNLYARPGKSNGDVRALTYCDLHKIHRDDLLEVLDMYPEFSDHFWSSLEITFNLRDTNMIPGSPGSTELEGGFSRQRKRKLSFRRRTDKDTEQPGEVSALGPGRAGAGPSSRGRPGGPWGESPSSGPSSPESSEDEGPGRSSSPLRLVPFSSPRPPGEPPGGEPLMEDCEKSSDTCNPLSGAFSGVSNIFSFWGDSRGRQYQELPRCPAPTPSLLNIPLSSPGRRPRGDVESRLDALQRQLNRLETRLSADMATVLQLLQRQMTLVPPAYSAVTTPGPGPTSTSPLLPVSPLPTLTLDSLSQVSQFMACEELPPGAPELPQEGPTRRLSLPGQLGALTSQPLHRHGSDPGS
T1 sequence (P61073 whole entry): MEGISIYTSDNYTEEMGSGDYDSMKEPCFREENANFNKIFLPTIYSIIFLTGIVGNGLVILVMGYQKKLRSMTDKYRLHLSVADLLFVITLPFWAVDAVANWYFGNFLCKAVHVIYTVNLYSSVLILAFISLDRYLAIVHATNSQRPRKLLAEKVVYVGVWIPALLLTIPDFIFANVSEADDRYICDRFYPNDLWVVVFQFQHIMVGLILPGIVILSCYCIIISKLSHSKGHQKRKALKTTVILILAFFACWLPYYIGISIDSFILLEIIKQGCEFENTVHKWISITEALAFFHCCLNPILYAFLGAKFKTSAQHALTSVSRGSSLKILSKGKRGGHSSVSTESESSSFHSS
Sequence of CYP2C19 (P33261 whole entry): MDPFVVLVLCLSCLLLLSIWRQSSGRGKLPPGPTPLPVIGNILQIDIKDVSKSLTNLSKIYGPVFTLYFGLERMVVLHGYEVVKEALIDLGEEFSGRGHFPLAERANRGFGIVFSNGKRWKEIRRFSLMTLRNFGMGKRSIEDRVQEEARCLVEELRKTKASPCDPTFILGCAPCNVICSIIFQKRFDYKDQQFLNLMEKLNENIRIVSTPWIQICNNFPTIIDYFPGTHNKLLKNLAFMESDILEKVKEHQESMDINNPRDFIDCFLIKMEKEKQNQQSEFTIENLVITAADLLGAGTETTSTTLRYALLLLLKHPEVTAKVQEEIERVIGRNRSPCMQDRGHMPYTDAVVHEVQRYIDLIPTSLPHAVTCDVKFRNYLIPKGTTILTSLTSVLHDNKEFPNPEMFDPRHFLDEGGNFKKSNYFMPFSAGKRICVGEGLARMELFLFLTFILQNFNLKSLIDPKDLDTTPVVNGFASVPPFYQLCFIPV
Sequence of CYP3A4 (P08684 whole entry): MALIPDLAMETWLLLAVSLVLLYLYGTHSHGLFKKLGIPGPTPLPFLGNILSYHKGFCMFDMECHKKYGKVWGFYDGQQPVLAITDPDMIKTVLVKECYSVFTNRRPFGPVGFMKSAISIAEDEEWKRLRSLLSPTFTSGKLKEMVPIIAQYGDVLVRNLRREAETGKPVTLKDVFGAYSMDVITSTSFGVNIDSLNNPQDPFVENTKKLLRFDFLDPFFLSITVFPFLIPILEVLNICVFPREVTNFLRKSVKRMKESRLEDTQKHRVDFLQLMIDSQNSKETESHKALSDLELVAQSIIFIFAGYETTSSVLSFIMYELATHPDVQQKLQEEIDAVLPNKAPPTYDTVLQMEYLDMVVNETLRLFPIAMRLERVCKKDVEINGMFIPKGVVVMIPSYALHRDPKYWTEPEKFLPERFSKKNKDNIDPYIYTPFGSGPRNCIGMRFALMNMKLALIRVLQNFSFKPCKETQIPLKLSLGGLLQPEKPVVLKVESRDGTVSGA

| Structure (SMILES) | IC50 [1] | CC50 [2] | CC50 [3] | IC50 [4] | also measured |
| --- | --- | --- | --- | --- | --- |
| NCCCCN(C[C@H]1CNCCN1C(=O)c1ccccc1)[C@H]1CCCc2cccnc21 | > 100000 nM | > 10000 nM | > 10000 nM |  |  |
| NCCCCN(C[C@H]1CNCCN1)[C@H]1CCCc2cccnc21 | 310 nM | > 10000 nM | > 10000 nM | 255 nM |  |
| NCCCCN(C[C@H]1CN(S(=O)(=O)c2cc3ccccc3s2)CCN1)[C@H]1CCCc2cccnc21 | 3440 nM | > 10000 nM | > 10000 nM | 39 nM |  |
| NCCCCN(C[C@@H]1CN(Cc2ccccc2)CCN1)[C@H]1CCCc2cccnc21 |  | > 10000 nM | > 10000 nM | 190 nM | IC50 [5]: 2920 nM |
| NCCCCN(C[C@@H]1CNCCN1)[C@H]1CCCc2cccnc21 | 1100 nM | > 10000 nM | > 10000 nM | 1200 nM |  |
| NCCCCN(C[C@H]1CN(S(=O)(=O)c2ccc(Cl)cc2)CCN1)[C@H]1CCCc2cccnc21 | 50 nM | > 10000 nM | > 10000 nM | 2 nM |  |
| NCCCCN(C[C@H]1CN(Cc2ccccc2)CCN1)[C@H]1CCCc2cccnc21 |  | > 10000 nM | > 10000 nM | 230 nM |  |
| NCCCCN(C[C@H]1CN(C(=O)Nc2ccccc2)CCN1)[C@H]1CCCc2cccnc21 | 350 nM | > 10000 nM | > 10000 nM |  |  |
| NCCCCN(C[C@H]1CN(S(=O)(=O)c2ccccc2)CCN1)[C@H]1CCCc2cccnc21 |  | > 10000 nM | > 10000 nM | 2 nM |  |
| NCCCCN(C[C@H]1CN(C(=O)c2ccccc2)CCN1)[C@H]1CCCc2cccnc21 | 60 nM | > 10000 nM | > 10000 nM | 2 nM |  |
| NCCCCN(C[C@@H]1CN(C(=O)c2ccco2)CCN1)[C@H]1CCCc2cccnc21 | 150 nM | > 10000 nM | > 10000 nM | 35 nM |  |
| NCCCCN(C[C@@H]1CN(C(=O)c2ccccc2)CCN1)[C@H]1CCCc2cccnc21 | 20 nM | > 10000 nM | > 10000 nM | 6 nM | inhibition at 1 µM [6]: 18%; inhibition at 1 µM [7]: 2%; IC50 [8]: 88 nM; inhibition at 10 µM [9]: 55%; Ratio IC50 [10]: 0.3; inhibition at 1 µM [11]: 0%; inhibition at 1 µM [12]: 19% |
| NCCCCN(CC1CN(C(=O)c2ccco2)CCN1)[C@H]1CCCc2cccnc21 (mixture of isomers) | 210 nM | > 10000 nM | > 10000 nM |  |  |
| NCCCCN(C[C@@H]1CN(C(=O)OCc2ccccc2)CCN1)[C@H]1CCCc2cccnc21 | 1350 nM | > 10000 nM | > 10000 nM |  |  |
| NCCCCN(C[C@@H]1CNCCN1C(=O)c1ccccc1)[C@H]1CCCc2cccnc21 | > 100000 nM | > 10000 nM | > 10000 nM |  |  |
| NCCCCN(C[C@@H]1CN(S(=O)(=O)c2ccccc2)CCN1)[C@H]1CCCc2cccnc21 |  | > 10000 nM | > 10000 nM | 23 nM | inhibition at 1 µM [6]: 37%; inhibition at 1 µM [7]: 2%; inhibition at 10 µM [9]: 79%; inhibition at 1 µM [11]: 0%; inhibition at 1 µM [12]: 41% |
| NCCCCN(Cc1nc2ccccc2[nH]1)[C@H]1CCCc2cccnc21 [MAVORIXAFOR] |  |  |  |  | inhibition at 1 µM [7]: 20%; inhibition at 1 µM [12]: 100% |
| NCCCCN(CC1CN(c2ccccc2)CCN1)[C@H]1CCCc2cccnc21 (mixture of isomers) | 720 nM | > 10000 nM | > 10000 nM | 130 nM |  |
| NCCCCN(C[C@H]1CN(C(=O)OCc2ccccc2)CCN1)[C@H]1CCCc2cccnc21 | 340 nM | > 10000 nM | > 10000 nM | 18 nM |  |
| NCCCCN(C[C@H]1CN(S(=O)(=O)c2ccc3ccccc3c2)CCN1)[C@H]1CCCc2cccnc21 | 4600 nM | > 10000 nM | > 10000 nM | 71 nM |  |
